Measurements published in the supplement of paper PMC11061612.

What was measured:
[1] = test system: COLO-679 (Melanoma); test: Bliss excess, mean over the matrix (fraction); higher = more synergy
Summary of the method: (§1)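 Cell lines grown in DMEM/F12 or RPMI with 10% FBS were plated in 1536-well plates and held 24 hours at 37°C, 5% CO2 before 72 hours of exposure to two-drug dose matrices, with DMSO typically at 0.2%. CellTiter-Glo 2.0 luminescence gave viability, which was converted to inhibition. Vehicle wells were set to 0 and blank wells to 1. Combination Emax is the second-highest inhibition in the matrix, and Bliss excess is the observed combination effect minus the expected EA + EB − EA·EB, where EA and EB are the single-agent effects.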

[2] = test system: KMRC-1 (Kidney Carcinoma); test: as above
Summary of the method: as §1

[3] = test system: A4-Fuk (B-Lymphoblastic Leukemia); test: as above
Summary of the method: as §1

[4] = test system: ME-180 (Cervical Carcinoma); test: as above
Summary of the method: as §1

[5] = test system: MOLT-4 (T-Lymphoblastic Leukemia); test: as above
Summary of the method: as §1

[6] = test system: COLO-679 (Melanoma); test: combination Emax (second highest fraction inhibited in the dose matrix, 72 h); higher = more inhibition; extreme values may be limits of the assay
Summary of the method: as §1

[7] = test system: SW872 (Other Solid Carcinomas); test: as above
Summary of the method: as §1

[8] = test system: MOG-G-UVW (Low Grade Glioma); test: as above
Summary of the method: as §1

[9] = test system: EFO-21 (Ovarian Carcinoma); test: as above
Summary of the method: as §1

[10] = test system: SKN (Other Solid Carcinomas); test: as above
Summary of the method: as §1

[11] = test system: SW982 (Other Solid Carcinomas); test: as above
Summary of the method: as §1

[12] = test system: Mo-T (Other Blood Carcinomas); test: as above
Summary of the method: as §1

[13] = test system: NCI-H1993 (Lung Adenocarcinoma); test: as above
Summary of the method: as §1

[14] = test system: NCI-H522 (Lung Adenocarcinoma); test: as above
Summary of the method: as §1

[15] = test system: ML-2 (Acute Myeloid Leukemia); test: as above
Summary of the method: as §1

[16] = test system: SK-N-AS (Neuroblastoma); test: as above
Summary of the method: as §1

[17] = test system: ME-180 (Cervical Carcinoma); test: as above
Summary of the method: as §1

[18] = test system: MOLT-4 (T-Lymphoblastic Leukemia); test: as above
Summary of the method: as §1

[19] = test system: MDA-MB-453 (Breast Carcinoma); test: as above
Summary of the method: as §1

[20] = test system: COLO-668 (Small Cell Lung Carcinoma); test: as above
Summary of the method: as §1
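Wherever Bliss excess, mean over the matrix is given: after 72 h of two-drug dosing.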

SMILES | Bliss excess [1] | Bliss excess [2] | Bliss excess [3] | Bliss excess [4] | Bliss excess [5] | combination Emax [6] | combination Emax [7] | combination Emax [8] | combination Emax [9] | combination Emax [10] | combination Emax [11] | combination Emax [12] | combination Emax [13] | combination Emax [14] | combination Emax [15] | combination Emax [16] | combination Emax [17] | combination Emax [18] | combination Emax [19] | combination Emax [20]
CN(CCO)CC[C@H](CSc1ccccc1)Nc1ccc(S(=O)(=O)NC(=O)c2ccc(N3CCC([C@@H](O)c4ccccc4-c4ccc(Cl)cc4)CC3)cc2)cc1S(=O)(=O)C(F)(F)F [AZD4320] + C1CN(CCC1(C(=O)N[C@@H](CCO)C2=CC=C(C=C2)Cl)N)C3=NC=NC4=C3C=CN4 [Capivasertib] (first compound max 1 µM, 7x7, partner max 3 µM) | -0.0431 | 0.0094 | -0.0013 | -0.0238 | 0.0173 | 0.0975 | 0.166 | 0.355 | 0.168 | 0.401 | 0.278 | 0.697 | 0.791 | 0.049 | 0.984 | 0.172 | 0.507 | 1 | 0.596 | –
CN(CCO)CC[C@H](CSc1ccccc1)Nc1ccc(S(=O)(=O)NC(=O)c2ccc(N3CCC([C@@H](O)c4ccccc4-c4ccc(Cl)cc4)CC3)cc2)cc1S(=O)(=O)C(F)(F)F [AZD4320] + CC(=O)O[C@H]1C(=O)[C@@]2(C)[C@H]([C@H](OC(=O)c3ccccc3)[C@]3(O)C[C@H](OC(=O)[C@H](O)[C@@H](NC(=O)c4ccccc4)c4ccccc4)C(C)=C1C3(C)C)[C@]1(OC(C)=O)CO[C@@H]1C[C@@H]2O [Paclitaxel] (first compound max 1 µM, 7x7, partner max 3 µM) | -0.0012 | 0.0095 | -0.0556 | 0.139 | 0.0099 | 0.651 | 0.95 | 0.993 | 0.714 | 0.978 | 1 | 1 | 0.984 | 0.882 | 1 | 0.884 | 1 | 1 | 0.901 | 0.998
CN(CCO)CC[C@H](CSc1ccccc1)Nc1ccc(S(=O)(=O)NC(=O)c2ccc(N3CCC([C@@H](O)c4ccccc4-c4ccc(Cl)cc4)CC3)cc2)cc1S(=O)(=O)C(F)(F)F [AZD4320] + CCN(CCO)CCCOc1ccc2c(Nc3cc(CC(=O)Nc4cccc(F)c4)[nH]n3)ncnc2c1 [AZD2811] (first compound max 1 µM, 7x7, partner max 1 µM) | 0.0201 | -0.0359 | 0.0624 | 0.0343 | 0.0322 | 0.275 | 0.142 | 0.509 | 0.196 | 0.613 | 0.814 | 0.768 | 0.704 | 0.105 | 1 | 0.391 | 0.624 | 1 | 0.324 | 0.915
CN(CCO)CC[C@H](CSc1ccccc1)Nc1ccc(S(=O)(=O)NC(=O)c2ccc(N3CCC([C@@H](O)c4ccccc4-c4ccc(Cl)cc4)CC3)cc2)cc1S(=O)(=O)C(F)(F)F [AZD4320] + C[C@@H]1COCCN1C2=NC(=NC(=C2)C3(CC3)[S@](=N)(=O)C)C4=C5C=CNC5=NC=C4 [AZD6738] (first compound max 1 µM, 7x7, partner max 10 µM) | -0.0266 | -0.0358 | -0.0169 | 0.0005 | -0.0084 | 0.771 | 0.624 | 0.794 | 0.433 | 0.663 | 0.886 | 0.937 | 0.766 | 0.156 | 1 | 0.949 | 0.564 | 1 | 0.803 | 0.983
CN(CCO)CC[C@H](CSc1ccccc1)Nc1ccc(S(=O)(=O)NC(=O)c2ccc(N3CCC([C@@H](O)c4ccccc4-c4ccc(Cl)cc4)CC3)cc2)cc1S(=O)(=O)C(F)(F)F [AZD4320] + C[C@@H](Nc1cc(F)cc(F)c1)c1cc(C(=O)N(C)C)cc2c(=O)cc(N3CCOCC3)oc12 [AZD8186] (first compound max 1 µM, 7x7, partner max 3 µM) | -0.0469 | -0.0007 | 0.0025 | -0.0137 | -0.0129 | 0.256 | 0.293 | 0.727 | 0.381 | 0.634 | 0.928 | 0.989 | 0.874 | 0.213 | 0.999 | 0.406 | 0.338 | 0.982 | 0.48 | 0.977
CN(CCO)CC[C@H](CSc1ccccc1)Nc1ccc(S(=O)(=O)NC(=O)c2ccc(N3CCC([C@@H](O)c4ccccc4-c4ccc(Cl)cc4)CC3)cc2)cc1S(=O)(=O)C(F)(F)F [AZD4320] + Cc1cc2ncnn2cc1Nc1ncc2c(n1)n(C1CCOCC1)c(=O)n2C [AZD7648] (first compound max 1 µM, 7x7, partner max 10 µM) | -0.0351 | -0.0618 | -0.0211 | -0.007 | 0.0422 | 0.142 | 0.113 | 0.191 | 0.224 | 0.15 | 0.371 | 0.578 | 0.785 | 0.0447 | 0.966 | 0.182 | 0.26 | 0.98 | 0.285 | 0.867
CN(CCO)CC[C@H](CSc1ccccc1)Nc1ccc(S(=O)(=O)NC(=O)c2ccc(N3CCC([C@@H](O)c4ccccc4-c4ccc(Cl)cc4)CC3)cc2)cc1S(=O)(=O)C(F)(F)F [AZD4320] + Cn1cnc2c(F)c(Nc3ccc(Br)cc3Cl)c(C(=O)NOCCO)cc21 [Selumetinib] (first compound max 1 µM, 7x7, partner max 3 µM) | 0.0716 | 0.0167 | 0.073 | 0.0771 | 0.0365 | 0.834 | 0.21 | 0.593 | 0.322 | 0.454 | 0.844 | 0.996 | 0.935 | 0.301 | 1 | 0.776 | 0.333 | 0.993 | 0.331 | 0.989
CN(CCO)CC[C@H](CSc1ccccc1)Nc1ccc(S(=O)(=O)NC(=O)c2ccc(N3CCC([C@@H](O)c4ccccc4-c4ccc(Cl)cc4)CC3)cc2)cc1S(=O)(=O)C(F)(F)F [AZD4320] + Nc1ccn([C@@H]2O[C@H](CO)[C@@H](O)C2(F)F)c(=O)n1 [Gemcitabine] (first compound max 1 µM, 7x7, partner max 0.3 µM) | -0.0226 | 0.0287 | -0.0912 | -0.0249 | -0.0209 | 0.851 | 0.929 | 0.821 | 0.473 | 0.783 | 1 | 0.997 | 0.937 | 0.224 | 1 | 0.672 | 0.878 | 1 | 0.731 | 0.966
Cc1c2c(nn1C)CSCc1cc(n(C)n1)CSc1cc(c3ccccc3c1)OCCCc1c(C(=O)O)n(C)c3c-2c(Cl)ccc13 [AZD5991] + Cn1cnc2c(F)c(Nc3ccc(Br)cc3Cl)c(C(=O)NOCCO)cc21 [Selumetinib] (first compound max 1 µM, 7x7, partner max 3 µM) | -0.0191 | -0.0396 | – | -0.0192 | 0.0167 | 0.832 | 0.288 | 0.302 | 0.36 | – | 0.377 | 0.296 | 0.511 | 0.409 | 1 | 0.876 | 0.26 | 0.339 | 0.289 | 0.666
Cc1cc2ncnn2cc1Nc1ncc2c(n1)n(C1CCOCC1)c(=O)n2C [AZD7648] + C=CCn1c(=O)c2cnc(Nc3ccc(N4CCN(C)CC4)cc3)nc2n1-c1cccc(C(C)(C)O)n1 [AZD1775] (first compound max 10 µM, partner max 1 µM) | -0.0446 | 0.0051 | -0.0655 | -0.0378 | 0.0141 | 0.46 | 0.384 | 0.779 | 0.511 | 0.38 | 0.825 | 0.52 | 0.635 | 0.373 | 1 | 0.949 | 0.529 | 1 | 0.347 | 0.568
N#Cc1cnc(Nc2cc(NC[C@H]3CNCCO3)c(C(F)(F)F)cn2)cn1 [SRA737] + Nc1ccn([C@@H]2O[C@H](CO)[C@@H](O)C2(F)F)c(=O)n1 [Gemcitabine] (first compound max 10 µM, 7x7, partner max 0.3 µM) | -0.0808 | 0.042 | 0.0278 | – | 0.0522 | 0.828 | 0.905 | 0.986 | 0.585 | 0.729 | 0.905 | 0.737 | 0.939 | 0.855 | 1 | 0.712 | 0.9 | 1 | 0.542 | 0.84
N#Cc1cnc(Nc2cc(NC[C@H]3CNCCO3)c(C(F)(F)F)cn2)cn1 [SRA737] + O=c1[nH]cc(F)c(=O)[nH]1 [5-Fluorouracil] (first compound max 10 µM, 7x7, partner max 20 µM) | -0.148 | 0.0038 | 0.0129 | 0.0272 | 0.013 | 0.7 | – | 0.558 | 0.313 | 0.361 | 0.679 | 0.544 | 0.76 | 0.0376 | 0.963 | 0.565 | 0.564 | 1 | 0.534 | 0.483
